Type in all cases: physicochemical
The nature of data set [1]: solubility of crystalline forms in organic solvents. The text has this: Forms A and B have similar solubilities.
Data set [2] in a line: hygroscopicity of the anhydrous polymorphs. As to conditions: Form A compared with Form B. An excerpt:
(§1) In some embodiments, removal of the solvent molecule(s) from selpercatinib in solvated form can provide for selpercatinib Form A.

Data set [3] is described as follows: solid-form stability (thermodynamic stability, form conversion on storage, isolation and drying).
Source text: as §1
As noted above, selpercatinib can form solvates; and it can also form metastable solid forms, both of which are generally not stable on drying. […] The solvates and metastable forms usually revert to Form A during isolation and/or drying, although films or amorphous material occasionally form. The chloroform and 1,4-dioxane solvates were stable upon isolation/drying. Thus, one strategy for preparing selpercatinib Form A is to convert amorphous selpercatinib and/or selpercatinib Form B into a solvate and then desolvating the solvate, to afford Form A.
In one preferred embodiment, the Form A material is washed with MTBE or heptane and then dried under vacuum at a temperature of about 40 to about 45° C.
The formation of the solvate appears to remove any dependence on, or effect from, the seed crystal form.

Structures are written as SMILES. In brackets after ≈: the same amount, converted by molar mass.

The term solubility denotes how much of the substance goes into solution per volume. Turning to `COc1ccc(CN2C3CC2CN(c2ccc(-c4cc(OCC(C)(C)O)cn5ncc(C#N)c45)cn2)C3)cn1` [Form A, 6-(2-hydroxy-2-methylpropoxy)-4-(6-(6-((6-methoxypyridin-3-yl)methyl)-3,6-diazabicyclo[3.1.1]heptan-3-yl)pyridin-3-yl)pyrazolo[1,5-a]pyridine-3-carbonitrile], in data set [1] (25° C., methyl ethyl ketone (MEK), acetone, many alcohol based solvents), the “solubility in many organic solvents” value was “poor”. Further, in data set [1] (organic solvents: dichloromethane, dimethylsulfoxide, organic solvent or mixture, moderate solubility, 25° C., DCM, DMSO, THF), the solubility lay in the range of 3 to 30 mg/mL (≈ 5.71 to 57.1 mM). Further, the hygroscopicity entry in data set [2] is reported as “slightly more hygroscopic”. The thermodynamic stability result in data set [3] (Form A compared with Form B) was “thermodynamically less stable”. The interconversion of polymorphs entry in data set [3] (typical storage or preparative conditions) was “do not readily inter-convert”. Moreover, in data set [3] (wet cake dried at 45° C., ambient pressure, over several days), the “form conversion on drying of wet cake” value is “slowly converted the Form A to Form B”.
Consider `COc1ccc(CN2C3CC2CN(c2ccc(-c4cc(OCC(C)(C)O)cn5ncc(C#N)c45)cn2)C3)cn1` [Form B, 6-(2-hydroxy-2-methylpropoxy)-4-(6-(6-((6-methoxypyridin-3-yl)methyl)-3,6-diazabicyclo[3.1.1]heptan-3-yl)pyridin-3-yl)pyrazolo[1,5-a]pyridine-3-carbonitrile], for which the solubility in anisole entry in data set [1] (anisole) is reported as “almost no solubility”.

(Values after patent US20230183266A1, “CRYSTALLINE FORMS OF RET INHIBITOR AND PREPARATION THEREOF” (LOXO ONCOLOGY, INC., priority 2021, published 2023).)
